Counter-ions that a name gives are not always drawn.

The target in the first test is T1, HIV protease (Human immunodeficiency virus type 1 group M subtype B, UniProt P04585).
T1 construct: HIV protease consists of 99 amino acids and is evidently split off by itself from the pol polyprotein
The test is described as follows: Inhibition of HIV protease (cleavage of H-Ser-Phe-Asn-Phe-Opr-Gln-Ile-OH, HPLC). It is filed as biochemical.
Conditions: not given
The text has this: The compounds of the formula (I) according to the invention have enzyme-inhibiting properties. In particular, they inhibit the action of retroviral aspartyl proteases, such as that of HIV protease. Their enzyme-inhibitory action, which is in the milli- to subnanomolar range, can be determined as follows.
The heptapeptide: H-Ser-Phe-Asn-Phe-Pro-Gln-Ile-OH (P. L. Darke et al., Biophys. Res. Commun. 156 (1988) 297-303), inter alia, has hitherto been used as the substrate of HIV protease. HIV protease cleaves the substrate here between the second Phe and Pro.
General instructions for testing inhibitors of HIV proteases: a) Preparation of the substrate solution:
2 mg of H-Ser-Phe-Asn-Phe-Opr-Gln-Ile-OH (H-Opr-OH=5-oxaproline) are dissolved in 1 ml of MGTE15 buffer (use of ultrasound if necessary) and the solution is then filtered over a sterile filter (0.45 μm). […]
b) Preparation of the inhibitor solution:
2.5 times the desired molarity of the inhibitor per ml of solution are weighed out and dissolved in DMSO (10% of the final volume). The solution is diluted to the final volume with MGTE15 buffer and filtered over a sterile filter (0.45 μm). […]
c) Preparation of the protease solution:
5 μl of the HIV protease solution are diluted with MGTE25 buffer as required.
10 μl portions of the substrate solution are pipetted into test-tubes (16×100) with a screw cap. For the blank experiment, 10 μl of MGTE15 buffer containing 10% of DMSO are pipetted into a test-tube. 10 μl portions of the inhibitor solutions are added to the other test-tubes. The mixtures are incubated at 37° C. for 5-10 minutes and 5 μl of the protease solution are then added to each sample, After reaction at 35° C. for 2 hours, 10 or 20 μl (depending on the sensitivity of the HPLC apparatus) of each sample are then pipetted off, introduced into microvials and diluted with 120 μl of the HPLC mobile phase. […]
e) Conditions for the HPLC analysis:
20% (weight/weight) of aceto-
Column: Merck ®LICHROSORB RP18 (5 μm) 250×4
Column temperature: 42° C.
Detector parameters: 215 nm, 0.08 AUF, 18.2° C.
Analysis time: 11 minutes
Retention time of the substrate: 8.1 minutes
Retention time of the N-terminal tetrapeptide: 3.9 minutes
20 mM morpholinoethanesulfonic acid (MES)
15% (weight/volume) of glycerol
0.1% (volume/volume) of Triton ×100
1 mM phenylmethylsulfonyl fluoride (PMSF)
25% (weight/volume) of glycerol, additionally 1 mM dithiothreitol (DTT) The MES, EDTA, NaCl, DTT and PMSF are weighed into a conical flask and dissolved in a little water and the pH is brought to 6. The corresponding amount of glycerol is weighed into a measuring flask and ®Triton ×100 is pipetted in. The aqueous solution is transferred to the measuring flask and made up to the mark with water.
A 0.1M solution is prepared from orthophosphoric acid (FLUKA extra pure analytical grade). This solution is brought to exactly pH 2.5 with triethylamine (FLUKA extra pure analytical grade). The weight of the solution is determined and the corresponding amount of acetonitrile (fume cupboard) is weighed in. The mixture is mixed thoroughly and degassed with helium 5.0 for about 5 minutes.
Under the conditions chosen here, heptapeptides are separated from the N-terminal tetrapeptide formed during enzymatic cleavage. The percentage content of the tetrapeptide peak in respect of the sum of tetrapeptide+heptapeptide corresponds to the cleaving rate. The following IC50 values indicate the inhibitor concentration at which the cleavage rate is halved.
Compound `CC(C)[C@H](NC(=O)[C@H](Cc1ccccc1)NC(=O)[C@H](COC(C)(C)C)NC(=O)OC(C)(C)C)C(=O)N[C@@H](Cc1ccccc1)[C@@H](O)[C@H](O)[C@H](Cc1ccccc1)NC(=O)[C@@H](NC(=O)[C@H](Cc1ccccc1)NC(=O)[C@H](COC(C)(C)C)NC(=O)OC(C)(C)C)C(C)C` [Example 15, N,N'-bis-(tert.-Butoxycarbonyl-L-(O-tert.-butylseryl)-L-phenylalanyl-L-valyl)-2S,5S-diamino-1,6-diphenyl-hexane-3R,4R-diol] came in with an IC50 of 400 nM.

The test is the same for the next values; noted with them: inhibitor concentration at which the cleavage rate is halved; pH 6, 2 hours; read-out: IC50.
As to `CC(C)C[C@H](NC(=O)[C@@H](NC(=O)[C@@H](N)Cc1ccccc1)C(C)C)C(O)C(O)[C@H](CC(C)C)NC(=O)[C@@H](NC(=O)[C@@H](N)Cc1ccccc1)C(C)C` (stereo partly drawn) [Example 55, N,N'-bis-(L-Phenylalanyl-L-valyl)-4S,7S-diamino-2,9-dimethyldecane-5,6-dioldihydrochloride], the IC50 is 1.3 nM.
As to `CC(C)[C@H](NC(=O)C(Cc1ccccc1)Cn1ccnc1)C(=O)N[C@@H](Cc1ccccc1)[C@H](O)[C@@H](O)[C@H](Cc1ccccc1)NC(=O)[C@@H](NC(=O)C(Cc1ccccc1)Cn1ccnc1)C(C)C` (single isomer, unassigned) [Example 95, N,N'-bis-<(2-(1-Imidazolylmethyl)-3-phenylpropionyl)-L-valyl->-2S,5S-diamino-1,6-diphenylhexane-3S,4S-diol], the IC50 is 380 nM.
Regarding `CC(C)[C@H](NC(=O)[C@H](Cc1cccc2ccccc12)CS(=O)(=O)C(C)(C)C)C(=O)N[C@@H](Cc1ccc2c(c1)OCO2)[C@@H](O)[C@H](O)[C@H](Cc1ccc2c(c1)OCO2)NC(=O)[C@@H](NC(=O)[C@H](Cc1cccc2ccccc12)CS(=O)(=O)C(C)(C)C)C(C)C` [Example 155], the IC50 is 10 nM.
Turning to `CC(C)[C@H](NC(=O)C(CNC(=O)OC(C)(C)C)Cc1ccccc1)C(=O)N[C@@H](Cc1ccccc1)[C@@H](O)[C@H](O)[C@H](Cc1ccccc1)NC(=O)[C@@H](NC(=O)C(CNC(=O)OC(C)(C)C)Cc1ccccc1)C(C)C` (single isomer, unassigned) [Example 105, N,N'-bis-<(2-Benzyl-3-tert.-butoxycarbonylamino)-propionyl-L-valyl>-2S,5S-diamino-1,6-diphenylhexane-3R,4R-diol], the IC50 was found to be 19 nM.
`CC(C)[C@H](NC(=O)[C@@H](N)CC1CCCCC1)C(=O)N[C@@H](Cc1ccccc1)[C@@H](O)[C@H](O)[C@H](Cc1ccccc1)NC(=O)[C@@H](NC(=O)[C@@H](N)CC1CCCCC1)C(C)C` [Example 116, N,N'-bis-<L-Cyclohexylalanyl-L-valyl>-2S,5S-diamino-1,6-diphenylhexane-3R,4R-diol dihydrochloride]: the IC50 came to 1.7 nM.
As for `CC(C)[C@H](NC(=O)[C@H](Cc1ccccc1)NC(=O)[C@@H](N)CO)C(=O)N[C@@H](Cc1ccccc1)[C@@H](O)[C@H](O)[C@H](Cc1ccccc1)NC(=O)[C@@H](NC(=O)[C@H](Cc1ccccc1)NC(=O)[C@@H](N)CO)C(C)C` [Example 14, N,N'-bis-(L-Seryl-L-phenylalanyl-L-valyl)-2S,5S-diamino-1,6-diphenylhexane-3R,4R-diol dihydrochloride], the IC50 worked out at 1 nM.
Regarding `N[C@@H](Cc1ccccc1)C(=O)N[C@H](C(=O)N[C@@H](Cc1ccccc1)[C@@H](O)[C@H](O)[C@H](Cc1ccccc1)NC(=O)[C@@H](NC(=O)[C@@H](N)Cc1ccccc1)C1CCCCC1)C1CCCCC1` [Example 72, N,N'-bis-<L-Phenylalanyl-L-cyclohexylglycyl>-2S,5S-diamino-1,6-diphenylhexane-3R,4R-diol dihydrochloride], the IC50 amounted to 30 nM.
Same read-out and setting: the figure for `CC(C)[C@H](NC(=O)[C@H](Cc1ccccc1)OC1O[C@H]([C@H](O)CO)[C@H](O)[C@@H]1O)C(=O)N[C@@H](Cc1ccccc1)[C@@H](O)[C@H](O)[C@H](Cc1ccccc1)NC(=O)[C@@H](NC(=O)[C@H](Cc1ccccc1)OC1O[C@H]([C@H](O)CO)[C@H](O)[C@@H]1O)C(C)C` (stereo partly drawn) [Example 107, N,N'-bis-<O-(D-Mannofuranosyl)-2S-hydroxy-3-phenyl-propionyl-L-valyl>-2S,5S-diamino-1,6-diphenylhexane-3R,4R-diol] is 8.5 nM; for `CC(C)[C@H](NC(=O)[C@H](Cc1ccccc1)NC(=O)[C@@H](N)CO)C(=O)N[C@@H](Cc1ccccc1)[C@H](O)[C@@H](O)[C@H](Cc1ccccc1)NC(=O)[C@@H](NC(=O)[C@H](Cc1ccccc1)NC(=O)[C@@H](N)CO)C(C)C` [Example 19, N,N'-bis-(L-Seryl-L-phenylalanyl-L-valyl)-2S,5S-diamino-1,6-diphenylhexane-3S,4S-diol dihydrochloride] it is 0.7 nM.
On to `CSCC[C@H](N)C(=O)N[C@H](C(=O)N[C@@H](Cc1ccccc1)[C@H](O)[C@@H](O)[C@H](Cc1ccccc1)NC(=O)[C@@H](NC(=O)[C@@H](N)CCSC)C(C)C)C(C)C` [Example 74, N,N'-bis-<L-Methionyl-L-valyl>-2S,5S-diamino-1,6-diphenylhexane-3S,4S-dioldihydrochloride], for which the IC50 came out at 1.7 nM.
For the compound `CC(C)[C@H](NC(=O)[C@@H](N)Cc1ccccc1)C(=O)N[C@H](CNC[C@H](Cc1ccccc1)NC(=O)[C@@H](NC(=O)[C@@H](N)Cc1ccccc1)C(C)C)Cc1ccccc1` [Example 21, Bis-(N-(L-phenylalanyl-L-valyl)-2S-amino-3-phenylpropyl)-amine trihydrochloride], the IC50 amounted to 220 nM.
Same read-out and setting: then `CCCCC[C@H](NC(=O)[C@@H](NC(=O)[C@H](Cc1ccccc1)NC(=O)OC(C)(C)C)C(C)C)[C@@H](O)[C@H](O)[C@H](CCCCC)NC(=O)[C@@H](NC(=O)[C@H](Cc1ccccc1)NC(=O)OC(C)(C)C)C(C)C` [Example 150, N,N'-bis-(tert.-Butoxycarbonyl-L-phenylalanyl-L-valyl)-6S,9S-diaminotetradecane-7R, 8R-diol], with 95 nM; and `CC(C)(C)OC(=O)N[C@H](CNC[C@H](Cc1ccccc1)NC(=O)OC(C)(C)C)Cc1ccccc1` [Example 25, Bis-(N-tert.-butoxycarbonyl-2S-amino-3-phenylpropyl)-amine hydrochloride], with 18000 nM.
For the compound `CC(C)[C@H](NC(=O)[C@H](CCCCNC(=O)OCc1ccccc1)NC(=O)OC(C)(C)C)C(=O)N[C@@H](Cc1ccccc1)[C@@H](O)[C@H](O)[C@H](Cc1ccccc1)NC(=O)[C@@H](NC(=O)[C@H](CCCCNC(=O)OCc1ccccc1)NC(=O)OC(C)(C)C)C(C)C` [Example 80], the IC50 is 28 nM.
As for `CC(C)[C@H](NC(=O)C(Cc1ccccc1)CS(=O)(=O)N1CCC(N)CC1)C(=O)N[C@@H](Cc1ccccc1)[C@@H](O)[C@H](O)[C@H](Cc1ccccc1)NC(=O)[C@@H](NC(=O)C(Cc1ccccc1)CS(=O)(=O)N1CCC(N)CC1)C(C)C` (stereo partly drawn) [Example 97, N,N'-bis-<3-(4-Amino-1-piperidylsulfonyl)-2-benzyl-propionyl-L-valyl>-2S,5S-diamino-1,6-diphenylhexane-3R,4R-diol], the IC50 is 36 nM.
As for `N[C@@H](CCCCNC(=O)OCc1ccccc1)C(=O)N[C@@H](Cc1ccccc1)[C@@H](O)[C@H](O)[C@H](Cc1ccccc1)NC(=O)[C@@H](N)CCCCNC(=O)OCc1ccccc1` [Example 132, N,N'-bis-<N^6 -Benzoxycarbonyl-L-lysyl>-2S,5S-diamino-1,6-diphenylhexane-3R,4R-diol dihydrochloride], the IC50 stood at 20000 nM.
Consider `CC(C)[C@H](NC(=O)[C@H](Cc1c[nH]c2ccccc12)NC(=O)OCc1ccccc1)C(=O)N[C@@H](Cc1ccccc1)[C@@H](O)[C@H](O)[C@H](Cc1ccccc1)NC(=O)[C@@H](NC(=O)[C@H](Cc1c[nH]c2ccccc12)NC(=O)OCc1ccccc1)C(C)C` [Example 117, N,N'-bis-<Benzyloxycarbonyl-L-tryptophyl-L-valyl>-2S,5S-diamino-1,6-diphenylhexane-3R,4R-diol], for which the IC50 was determined as 19 nM.

The record behind these values is patent US5712417A, “Inhibitors of retroviral proteases” (Abbott Laboratories, priority 1989, dated 1998).
